Laboratory results reported in ChEMBL document CHEMBL1144848, “Interaction of a cyclostreptin analogue with the microtubule taxoid site: the covalent reaction rapidly follows binding” (J Nat Prod, 2008).
The source made the active and inactive calls. No cut-off for these calls is given here.

Experiments:
[1] = species on record: Bos taurus; assay: Binding affinity to bovine tubulin assessed as drug level in bound to per mole of colchicine site at <=0 degC after 60 mins by total binding assay
[2] = species on record: Bos taurus; assay: Binding affinity to bovine tubulin assessed as drug level in bound to per mole of colchicine site at <=20 degC after 1 min by total binding assay
[3] = species on record: Bos taurus; assay: Binding affinity to bovine tubulin assessed as drug level in bound to per mole of colchicine site at <=20 degC after 1 min by covalent binding assay
[4] = species on record: Bos taurus; assay: Binding affinity to bovine tubulin assessed as drug level in bound to per mole of colchicine site at <=20 degC after 60 mins by total binding assay
[5] = species on record: Bos taurus; assay: Binding affinity to bovine tubulin assessed as drug level in bound to per mole of colchicine site at <=20 degC after 60 mins by covalent binding assay
[6] = species on record: Bos taurus; assay: Binding affinity to bovine tubulin at 5 uM in <=0 degC after 60 mins; settings: tested as the 14C-labelled form
[7] = species on record: Bos taurus; assay: Binding affinity to bovine tubulin at 5 uM in <=20 degC after 60 mins; settings: tested as the 14C-labelled form
[8] = species on record: Bos taurus; assay: Binding affinity to bovine microtubules assessed as drug level in bound to per mole taxoid site at <=0 degC after 1 min by total binding assay
[9] = species on record: Bos taurus; assay: Binding affinity to bovine microtubules assessed as drug level in bound to per mole taxoid site at <=0 degC after 1 min by covalent binding assay
[10] = species on record: Bos taurus; assay: Binding affinity to bovine microtubules assessed as drug level in bound to per mole taxoid site at <=0 degC after 60 mins by total binding assay
[11] = species on record: Bos taurus; assay: Binding affinity to bovine microtubules assessed as drug level in bound to per mole taxoid site at <=0 degC after 60 mins by covalent binding assay
[12] = species on record: Bos taurus; assay: Binding affinity to bovine microtubules assessed as drug level in bound to taxoid site at <=20 degC after 1 min by total binding assay
[13] = species on record: Bos taurus; assay: Binding affinity to bovine microtubules assessed as drug level in bound to taxoid site at <=0 degC after 1 min by covalent binding assay
[14] = species on record: Bos taurus; assay: Binding affinity to bovine microtubules assessed as drug level in bound to taxoid site at <=20 degC after 60 mins by total binding assay
[15] = species on record: Bos taurus; assay: Binding affinity to bovine microtubules assessed as drug level in bound to taxoid site at <=0 degC after 60 mins by covalent binding assay
[16] = species on record: Bos taurus; assay: Binding affinity to bovine tubulin assessed as drug level in bound to per mole of colchicine site at <=0 degC after 1 min by total binding assay
[17] = species on record: Bos taurus; assay: Enhancement of bovine tubulin stability at <=0 degC

stoichiometry [1]	Activity [2]	stoichiometry [3]	stoichiometry [4]	Activity [5]	Activity [6]	Activity [7]	stoichiometry [8]	Activity [9]	Activity [10]	Activity [11]	Activity [12]	Activity [13]	Activity [14]	Activity [15]	Activity [16]	Activity [17]	Structure (SMILES)
0.06 mol/mol	0.6 mol/mol	0.7 mol/mol	0.81 mol/mol	0.88 mol/mol	inactive	inactive	0.14 mol/mol	0.13 mol/mol	0.38 mol/mol	0.35 mol/mol	0.53 mol/mol	0.46 mol/mol	0.93 mol/mol	0.81 mol/mol	0.01 mol/mol	–	CC(=O)O[C@H]1[C@H](C)[C@@H](O)[C@H]2[C@H]1C=C(C)[C@@H]1C[C@@H]3[C@@H](C4=C5O[C@]3(C)CC[C@H](OC4=O)[C@H]5C)[C@H]21
–	–	–	–	–	–	–	–	–	–	–	–	–	–	–	–	Active	CC(=O)O[C@H]1C(=O)[C@@]2(C)[C@H]([C@H](OC(=O)c3ccccc3)[C@]3(O)C[C@H](OC(=O)[C@H](O)[C@@H](NC(=O)c4ccccc4)c4ccccc4)C(C)=C1C3(C)C)[C@]1(OC(C)=O)CO[C@@H]1C[C@@H]2O
